Measurements: US20240122834A1, “MEDICAMENT FOR PREVENTION AND TREATMENT OF HYPERPIGMENTATION” (SYMRISE AG, priority 2021, published 2024)

Tested on: tyrosinase activity in B16 melanoma cells
Assay: Tyrosinase activity in B16 melanoma cells (lysate, L-dopa to dopachrome, absorbance 475 nm)
Format: cell-based
Settings: B16 cells treated for 3 days, untreated control = 100
From the text: Tyrosinase is an oxidase that is the rate-limiting enzyme for controlling the production of melanin. The enzyme is mainly involved in two distinct reactions of melanin synthesis; firstly, the hydroxylation of a monophenol and secondly, the conversion of an o-diphenol to the corresponding o-quinone. o-quinone undergoes several reactions to eventually form melanin Tyrosinase is a copper-containing enzyme present in plant and animal tissues that catalyzes the production of melanin and other pigments from tyrosine by oxidation. It is found inside melanosomes which are synthesized in the skin melanocytes. In humans, the tyrosinase enzyme is encoded by the TYR gene.
To measure the tyrosinase activity of the cells, the B16 cells treated for 3 days with several doses of compounds were lysed by incubation at 4° C. for 30 min in lysis buffer (20 mM sodium phosphate, pH 6.8, 1% Triton X-100, 1 mM PMSF, 1 mM EDTA) containing protease inhibitors cocktail. The lysates were centrifuged at 15,000×g for 10 min to obtain the supernatant as the source of tyrosinase. The reaction mixture contained 20 mM phosphate buffer, pH 6.8, 1.25 mM L-dopa (Sigma-Aldrich). After incubation at 37° C. for 2 h, dopachrome formation was monitored by measuring absorbance at a wavelength of 475 nm in a microplate reader (TECAN).

| SMILES | Tyrosinase Activation (sample conc. 1 μg/ml) | Tyrosinase Activation (sample conc. 10 μg/ml) | also measured |
| --- | --- | --- | --- |
| CC(=O)OC1CC(C)CC(C)(C)C1 (stereo not shown) [Mintonat, Homomenthyl acetate] | 80% |  |  |
| CCCCCc1cc(O)c(C/C=C(\C)CCC=C(C)C)c(O)c1 [(−) CBG] | 55% |  | Tyrosinase Activation (sample conc. 0.5 μg/ml): 62% |
| CCCCCCCCCCCC=O [Aldehyde C12] | 82% |  | Tyrosinase Activation (sample conc. 0.1 μg/ml): 78% |
| CC(C)=CCC(C)(C)C(=O)C(C)C [Claritone] |  |  | Tyrosinase Activation (sample conc. 2.5 μg/ml): 70% |
| COC(Cc1ccccc1)OC [Phenyl acetaldehyde dimethyl acetal] |  | 80% | Tyrosinase Activation (sample conc. 100 μg/ml): 78% |
| O=Cc1ccccc1 [Benzaldehyde] |  | 75% |  |
| C=CCOC(=O)COC1CCCCC1 [Cyclogalbanate] |  | 73% |  |
| CC(=O)CCc1ccccc1 [Benzyl acetone] |  |  | Tyrosinase Activation (sample conc. 5 μg/ml): 90%; Tyrosinase Activation (sample conc. 25 μg/ml): 80%; Tyrosinase Activation (sample conc. 100 μg/ml): 90% |
| C=CCOC(=O)COc1ccccc1 [Allyl phenoxyacetate] | 62% | 50% | Tyrosinase Activation (sample conc. 50 μg/ml): 48% |
